Patent publication US20170157161A1, “Anti-Cancer Therapies” (Threshold Pharmaceuticals, Inc., priority 2015, published 2017)

How the values were obtained:
[1] = test system: pancreatic cancer cell lines; conditions: in vitro; cited from earlier work
[2] = test system: advanced pancreatic cancer; conditions: patients with advanced pancreatic cancer; cited from earlier work
[3] = test system: HS766-T human pancreatic cancer cells; assay: HS766-T human pancreatic tumor model in NMRI nu/nu mice; format: in vivo
Protocol: (§1) A combination of glufosfamide and gemcitabine was administered daily for 7 days to female NMRI nu/nu mice that were carrying tumors derived from HS766-T or As-PC-1 human pancreatic cancer cells. Mice were administered doses of vehicle control (0.9% sodium chloride solution, i.v.), gemcitabine (i.p.), glufosfamide (i.v.) or gemcitabine/glufosfamide combinations once daily for 7 consecutive days. A dose of 1.25 mg/kg was used as the standard dose for gemcitabine throughout the study.

[4] = test system: As-PC-1 human pancreatic cancer cells; assay: As-PC-1 human pancreatic tumor model in NMRI nu/nu mice; format: in vivo; conditions: glufosfamide i.v. and gemcitabine 1.25 mg/kg i.p., alone or in combination, once daily for 7 days
Protocol: as §1

[5] = test system: MiPaca2 human pancreatic cancer cells; assay: MiPaca2 human pancreatic tumor model in nude mice; format: in vivo
Protocol: A combination of glufosfamide and gemcitabine was administered to nude mice that were carrying tumors derived from type MiPaca2 human pancreatic cancer cells. Mice were administered doses of vehicle control, gemcitabine, glufosfamide, or gemcitabine/glufosfamide combinations as tabulated in Table 1 below (10 mice/group). Glufosfamide was administered i.v., daily for 14 days (Groups 1-4 and 7-12). Gemcitabine was administered at 300 mg/kg, i.p., once a week for three weeks (Groups 6 and 10-12). Gemcitabine was administered at 150 mg/kg, i.p., twice a week for three weeks (Groups 5 and 7-9).

| Structure (SMILES) | activity against pancreatic cancer cell lines [1] | activity in patients [2] | inhibitory effect on tumor progression ([3]; gemcitabine alone 1.25 mg/kg i.p. once daily for 7 days) | inhibitory effect on tumor growth [4] | deaths of the animals ([5]; Group 5: gemcitabine 150 mg/kg i.p. twice a week for three weeks) | reduction in tumor size ([5]; Group 6: gemcitabine 300 mg/kg i.p. once a week for three weeks) | onset of tumor growth ([3]; 10 mg/kg glufosfamide i.v. once daily for 7 days, compared with gemcitabine alone or vehicle control) | reduction in tumor size ([5]; Group 3: glufosfamide 30 mg/kg i.v. daily for 14 days) | reduction in tumor size ([5]; Group 4: glufosfamide 100 mg/kg i.v. daily for 14 days) |
| --- | --- | --- | --- | --- | --- | --- | --- | --- | --- |
| Nc1nc2[nH]cc(CCc3ccc(C(=O)N[C@@H](CCC(=O)O)C(=O)O)cc3)c2c(=O)[nH]1 [Pemetrexed] | active against pancreatic cancer cell lines in vitro | has shown activity in patients with advanced pancreatic cancer |  |  |  |  |  |  |  |
| Nc1ccn([C@@H]2O[C@H](CO)[C@@H](O)C2(F)F)c(=O)n1 [gemcitabine, 2′-deoxy-2′,2′-difluoro-cytidine] |  |  | only a marginal inhibitory effect on tumor progression | no apparent inhibitory effect on tumor growth | rapid deaths of the animals | Approximately 50% |  |  |  |
| O=P(NCCCl)(NCCCl)O[C@@H]1O[C@H](CO)[C@@H](O)[C@H](O)[C@H]1O [glufosfamide, β-D-glucosyl-ifosfamide mustard] |  |  |  | no apparent inhibitory effect on tumor growth |  |  | dramatic delay in the onset of tumor growth | modest reduction in tumor size | modest reduction in tumor size |
